Our source for the CC50, EC50 and bioavailability values is patent US11420959B2, “DACOS type NNRTIS amino acid ester derivative, preparation method thereof, pharmaceutical composition, and application thereof” (YUNNAN UNIVERSITY, priority 2018, dated 2022).

Like-named read-outs stand apart in the source and are kept apart here. Where only a bound is given, the exact number is not on record here.

A short description of data set [1]: Cytotoxicity experiment (MTT method) on C8166 cells. It counts as cell-based. Conditions: human. The method, then:
Cytotoxicity experiment: The toxicity of the compounds on C8166 cells was determined by MTT method. In a 96-well cell culture plate, the compounds were subjected to 5-fold serial dilution and 100 μL of C8166 cell suspension (4×10^5/mL) was added into each well. Three replicate wells were set for each concentration. At the same time, a cell control group without drugs and drug control groups with Zidovudine (AZT) or Nevirapine (NVP) were set. The cells were incubated at 37° C. in a 5% CO2 incubator for three days, followed by the addition of MTT solution into each well, and then the cells were incubated at 37° C. for 4 hours. 15% SDS-50% DMF was added to each well and the cells were incubated at 37° C. in a 5% CO2 incubator overnight. After mixing evenly, the OD values were measured by BIO-TEK ELx800 ELISA instrument (determination wavelength: 570 nm; reference wavelength: 630 nm).

A further data set deals with HIV-1IIIB. The experiment in a line: Syncytium inhibition experiment, C8166 cells infected with HIV-1IIIB. Conditions: Human immunodeficiency virus 1, 72 h, syncytium count, three days. In kind it is cell-based. As for the experimental part: The specific method was described below.
Syncytium inhibition experiment: 100 μL of C8166 cell suspension (4×10^5/mL) was inoculated into each well of a 96-well cell culture plate containing 5-fold serial dilutions of the compounds, followed by addition of HIV-1IIIB diluted supernatant (MOI=0.04). Three replicate wells were set for each serial concentration. […] The cells were incubated at 37° C. in a 5% CO2 incubator for three days. The number of the syncytia was counted in five non-overlapping fields of view by using an inverted microscope (100×). […] Calculation formula: cytopathic inhibition rate (%)=(1−number of syncytia in experimental wells/number of syncytia in control well)×100%.

For data set [2] the following is noted: due to strong hydrophobicity; cited from earlier work.

As to `Cc1cn([C@H]2C[C@H](N=[N+]=[N-])[C@@H](CO)O2)c(=O)[nH]c1=O` [AZT, Zidovudine, reference compound], in data set [1], the CC50 at 3 days was > 749 µM.

For `CCc1c(CC2CCCCC2)nc(SCC(=O)c2ccc(OC(=O)CN)cc2)[nH]c1=O` [Compound I-1], the CC50 at 3 days in data set [1] was found to be 138 µM. In the data set with HIV-1IIIB, this compound had a concentration giving a half-maximal response (EC50) of 0.004 µM.

With `CCc1c(CC2CCCCC2)nc(SCC(=O)c2ccc(OC(=O)C(N)CC(C)C)cc2)[nH]c1=O` (stereo not shown) [Compound I-2], in data set [1], the midpoint of cytotoxicity, the CC50 at 3 days, lay at 112 µM. Moreover, in the data set on HIV-1IIIB, the concentration giving a half-maximal response (EC50) worked out at 0.003 µM.

In turn, `CCc1c(CC2CCCCC2)nc(SCC(=O)c2ccc(OC(=O)[C@H](N)[C@H](C)CC)cc2)[nH]c1=O` [Compound I-3] registered a CC50 at 3 days in data set [1] of 134 µM. In the data set with HIV-1IIIB, the concentration for a half-maximal effect (EC50) was 0.005 µM.

As for `CCc1c(CC2CCCCC2)nc(SCC(=O)c2ccc(OC(=O)C3CCCN3)cc2)[nH]c1=O` (stereo not shown) [Compound I-4], the cytotoxic concentration (CC50) at 3 days in data set [1] was found to be 95.4 µM. The compound also registered an EC50 in the data set with HIV-1IIIB of 0.012 µM.

On to `CCc1c(CC2CCCCC2)nc(SCC(=O)c2ccc(OC(=O)C(N)Cc3c[nH]c4ccccc34)cc2)[nH]c1=O` (stereo not shown) [Compound I-5], for which, in data set [1], the CC50 at 3 days amounted to 95.2 µM. For the same compound, a half-maximal response with HIV-1IIIB (EC50) required 0.004 µM.

`CCc1c(CC2CCCCC2)nc(SCC(=O)c2ccc(OC(=O)[C@@H](C)N)cc2)[nH]c1=O` [Compound I-6] returned a CC50 at 3 days in data set [1] of 96 µM. In the data set with HIV-1IIIB, this compound showed an EC50 of 0.004 µM.

In turn, `CCc1c(CC2CCCCC2)nc(SCC(=O)c2ccc(OC(=O)C(N)Cc3ccccc3)cc2)[nH]c1=O` (stereo not shown) [Compound I-7] yielded a CC50 at 3 days in data set [1] of 90.1 µM. The same compound showed an EC50 with HIV-1IIIB of 0.009 µM.

On to `CCc1c(CC2CCCCC2)nc(SCC(=O)c2ccc(OC(=O)C(N)CCSC)cc2)[nH]c1=O` (stereo not shown) [Compound I-8], for which half-maximal cytotoxicity in data set [1] (CC50 at 3 days) was put at 116 µM. The compound also showed a half-maximal effective concentration (EC50) with HIV-1IIIB of 0.004 µM.

Regarding `CCc1c(CC2CCCCC2)nc(SCC(=O)c2ccc(OC(=O)C(N)CCCCN)cc2)[nH]c1=O` (stereo not shown) [Compound I-9], the midpoint of cytotoxicity in data set [1], the CC50 at 3 days, lay at 101 µM. Besides, in the data set on HIV-1IIIB, the half-maximal effective concentration (EC50) is 0.006 µM.

As to `CCc1c(CC2CCCCC2)nc(SCC(=O)c2ccc(OC(=O)C(N)Cc3cnc[nH]3)cc2)[nH]c1=O` (stereo not shown) [Compound I-10], in data set [1], half-maximal cytotoxicity (CC50 at 3 days) was put at 199 µM. The midpoint of the response with HIV-1IIIB, the EC50, lay at 0.012 µM.

Take `CCc1c(CC2CCCCC2)nc(SCC(=O)c2ccc(OC(=O)C(N)CCC(N)=O)cc2)[nH]c1=O` (stereo not shown) [Compound I-11]: in data set [1], the CC50 at 3 days stood at 118 µM. The EC50 in the data set with HIV-1IIIB worked out at 0.005 µM.

In the case of `CCc1c(CC2CCCCC2)nc(SCC(=O)c2ccc(OC(=O)C(N)CC(N)=O)cc2)[nH]c1=O` (stereo not shown) [Compound I-12], in data set [1], the CC50 at 3 days is 120 µM. The compound further registered a half-maximal effective concentration (EC50) with HIV-1IIIB of 0.004 µM.

In turn, `CCc1c(CC2CCCCC2)nc(SCC(=O)c2ccc(OC(=O)C(N)C(C)C)cc2)[nH]c1=O` (stereo not shown) [Compound I-13] registered a CC50 at 3 days in data set [1] of 94.8 µM. This compound also returned an EC50 in the data set on HIV-1IIIB of 0.003 µM.

Take `CC[C@@H](C)[C@@H](N)C(=O)Oc1ccc(C(=O)CSc2nc(CC3CCCCC3)c(C(C)C)c(=O)[nH]2)cc1` [Compound I-14]: in data set [1], it took 186 µM to reach half-maximal cytotoxicity (CC50 at 3 days). For the same compound, the concentration giving a half-maximal response (EC50) in the data set with HIV-1IIIB is 0.004 µM.

Compound `CC(C)c1c(CC2CCCCC2)nc(SCC(=O)c2ccc(OC(=O)C3CCCN3)cc2)[nH]c1=O` (stereo not shown) [Compound I-15] displayed a half-maximal cytotoxic concentration (CC50) at 3 days in data set [1] of 98.3 µM. In addition, the EC50 in the data set with HIV-1IIIB was 0.012 µM.

On to `CC(C)c1c(CC2CCCCC2)nc(SCC(=O)c2ccc(OC(=O)C(N)Cc3c[nH]c4ccccc34)cc2)[nH]c1=O` (stereo not shown) [Compound I-16], for which, in data set [1], the midpoint of cytotoxicity, the CC50 at 3 days, lay at 118 µM. In the data set on HIV-1IIIB, this compound displayed an EC50 of 0.004 µM.

In turn, `CC(C)c1c(CC2CCCCC2)nc(SCC(=O)c2ccc(OC(=O)CN)cc2)[nH]c1=O` [Compound I-17] yielded a CC50 at 3 days in data set [1] of 191 µM. This compound gave an EC50 in the data set on HIV-1IIIB of 0.003 µM.

For the compound `CC(C)CC(N)C(=O)Oc1ccc(C(=O)CSc2nc(CC3CCCCC3)c(C(C)C)c(=O)[nH]2)cc1` (stereo not shown) [Compound I-18], in data set [1], the CC50 at 3 days was 97.4 µM. The EC50 in the data set with HIV-1IIIB was found to be 0.004 µM.

Take `CC(C)c1c(CC2CCCCC2)nc(SCC(=O)c2ccc(OC(=O)C(N)C(C)C)cc2)[nH]c1=O` (stereo not shown) [Compound I-19]: in data set [1], the 50% cytotoxic concentration (CC50) at 3 days was 126 µM. Moreover, the 50% effective concentration (EC50) in the data set with HIV-1IIIB is 0.003 µM.

With `CSCCC(N)C(=O)Oc1ccc(C(=O)CSc2nc(CC3CCCCC3)c(C(C)C)c(=O)[nH]2)cc1` (stereo not shown) [Compound I-20], the 50% cytotoxic concentration (CC50) at 3 days in data set [1] was found to be 153 µM. Further, a half-maximal response with HIV-1IIIB (EC50) required 0.003 µM.

`CC(C)c1c(CC2CCCCC2)nc(SCC(=O)c2ccc(OC(=O)C(N)Cc3ccccc3)cc2)[nH]c1=O` (stereo not shown) [Compound I-21] had a 50% cytotoxic concentration (CC50) at 3 days in data set [1] of 95 µM. Besides, the 50% effective concentration (EC50) with HIV-1IIIB stood at 0.004 µM.

Consider `Cc1c(CC2CCCCC2)nc(SCC(=O)c2ccc(OC(=O)C(N)Cc3ccccc3)cc2)[nH]c1=O` (stereo not shown) [Compound I-22], for which the CC50 at 3 days in data set [1] turned out to be 98.6 µM. For the same compound, the midpoint of the response in the data set on HIV-1IIIB, the EC50, lay at 0.01 µM.

Take `Cc1c(CC2CCCCC2)nc(SCC(=O)c2ccc(OC(=O)CN)cc2)[nH]c1=O` [Compound I-23]: the CC50 at 3 days in data set [1] is > 200 µM. Further, it took 0.008 µM to reach a half-maximal effect with HIV-1IIIB (EC50).

In turn, `CSCCC(N)C(=O)Oc1ccc(C(=O)CSc2nc(CC3CCCCC3)c(C)c(=O)[nH]2)cc1` (stereo not shown) [Compound I-24] showed a 50% cytotoxic concentration (CC50) at 3 days in data set [1] of 199 µM. In the data set with HIV-1IIIB, this compound yielded a half-maximal effective concentration (EC50) of 0.012 µM.

As to `CCc1c(CC2CCCCC2)nc(SCC(=O)c2ccccc2)[nH]c1=O` [DB02], in data set [2], the bioavailability result is listed as “low”.

Turning to `Cc1ccnc2c1NC(=O)c1cccnc1N2C1CC1` [NVP, Nevirapine, reference compound], the cytotoxic concentration (CC50) at 3 days in data set [1] (C8166 cells, MTT, three days, read-out: CC50) is 504 µM. Moreover, the half-maximal effective concentration (EC50) with HIV-1IIIB came out at 0.013 µM.

One may read the CC50 as the concentration that lowers cell viability or growth by half. By EC50 is commonly meant the concentration at which the effect is half-maximal. The low end stands for a more potent agent, the high end for a less potent agent.
